# According to US10851064B2, “ACSS2 inhibitors and methods of use thereof” (METABOMED LTD., priority 2017, dated 2020):
# Several values for one entry are separate records, joined by “and”; a condition that tells them apart may be missing. Equal values may be shown once.
# Molecular target: ACSS2 (Homo sapiens, UniProt Q9NR19)
# Experiment: biochemical
# Method: ACSS2 Cell-Free Activity Assay (Cell-Free IC50)
# The assay is based on a coupling reaction with Pyrophosphatase: ACSS2 is converting ATP+CoA+Acetate=>AMP+pyrophosphate+Acetyl-CoA (Ac-CoA). Pyrophosphatase converts pyrophosphate, a product of the ACSS2 reaction, to phosphate which can be detected by measuring the absorbance at 620 nm after incubation with the Biomol green reagent (Enzo life Science, BML-AK111).
# Cell-free IC50 Determination:
# At the end of the reaction, Biomol Green was added for 30 minutes at RT and the activity was measured by reading the absorbance at 620 nm.
# 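Further: Cell-free human ACSS2 enzyme reaction with acetate, CoA and ATP, 90 min at 37 C, coupled to pyrophosphatase, phosphate release detected by Biomol Green absorbance at 620 nm.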
# Sequence of ACSS2 (Q9NR19 whole entry): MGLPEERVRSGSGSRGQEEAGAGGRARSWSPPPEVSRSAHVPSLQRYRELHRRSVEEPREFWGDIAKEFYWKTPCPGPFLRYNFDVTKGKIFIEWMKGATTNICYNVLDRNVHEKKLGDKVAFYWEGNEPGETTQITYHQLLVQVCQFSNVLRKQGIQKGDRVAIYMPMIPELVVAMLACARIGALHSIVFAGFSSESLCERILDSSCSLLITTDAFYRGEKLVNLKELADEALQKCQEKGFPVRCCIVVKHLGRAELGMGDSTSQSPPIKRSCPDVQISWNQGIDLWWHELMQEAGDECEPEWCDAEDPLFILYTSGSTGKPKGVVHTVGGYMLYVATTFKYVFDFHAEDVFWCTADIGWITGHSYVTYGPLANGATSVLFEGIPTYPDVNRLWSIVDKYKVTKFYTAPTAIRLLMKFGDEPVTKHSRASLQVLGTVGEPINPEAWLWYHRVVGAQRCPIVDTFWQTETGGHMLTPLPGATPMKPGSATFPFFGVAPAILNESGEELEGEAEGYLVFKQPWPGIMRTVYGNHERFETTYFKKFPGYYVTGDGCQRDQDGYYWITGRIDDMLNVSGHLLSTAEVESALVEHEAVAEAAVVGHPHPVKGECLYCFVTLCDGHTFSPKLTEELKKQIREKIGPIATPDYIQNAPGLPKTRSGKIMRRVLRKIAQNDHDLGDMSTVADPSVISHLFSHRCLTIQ
row,Compound,IC50
1,CC1=NN(c2ccc(OC3CCC3)cc2)C(=O)C1C(=O)Nc1cccc(C(C)(F)F)c1 (stereo not drawn) [compound 440],0.01 to 6 nM
2,CC1=NN(c2cc(Br)cc(-c3ccccc3)c2)C(=O)C1C(=O)Nc1cccc(C(C)(F)F)c1 (stereo not drawn) [compound 389],0.01 to 6 nM
3,"CC1=NN(c2ccccc2)C(=O)C1C(=O)Nc1cccc(C(=O)C(F)(F)F)c1 (stereo not drawn) [compound 152, 3-methyl-5-oxo-1-phenyl-N-(3-(2,2,2-trifluoroacetyl)phenyl)-4,5-dihydro-1H-pyrazole-4-carboxamide]",1000 to 100000 nM
4,CC1=NN(c2ccc(OC(F)F)cc2)C(=O)C1C(=O)Nc1cccc(C2COC2)c1 (stereo not drawn) [compound 329],100 to 1000 nM
5,CC1=NN(c2ccccc2)C(=O)C1C(=O)Nc1cccc(-c2ccon2)c1 (stereo not drawn) [compound 239],1000 to 100000 nM
6,"CC1=NN(c2ccccc2)C(=O)C1C(=O)Nc1cccc(S(=O)(=O)N(C)C)c1 (stereo not drawn) [compound 139, N-(3-(N,N-dimethylsulfamoyl)phenyl)-3-methyl-5-oxo-1-phenyl-4,5-dihydro-1H-pyrazole-4-carboxamide]",100 to 1000 nM
7,CC1=NN(c2ccc(Cc3ccccc3)c(-c3cccnc3)c2)C(=O)C1C(=O)Nc1cccc(C(C)(F)F)c1 (stereo not drawn) [compound 374],0.01 to 6 nM
8,CC1=NN(c2cc(Cc3ccccc3Cl)cc(-c3cccnc3)c2)C(=O)C1C(=O)Nc1cccc(C(C)(F)F)c1 (stereo not drawn) [compound 406],0.01 to 6 nM
9,"COCc1cccc(NC(=O)C2C(=O)N(c3ccccc3)N=C2C)c1 (stereo not drawn) [compound 103, N-(3-(methoxymethyl)phenyl)-3-methyl-5-oxo-1-phenyl-4,5-dihydro-1H-pyrazole-4-carboxamide]",100 to 1000 nM and 6 to 100 nM
10,CC1=NN(c2ccc(OC(F)F)cc2)C(=O)C1C(=O)Nc1cccc(C(F)(F)C(C)C)c1 (stereo not drawn) [compound 362],6 to 100 nM
11,CC1=NN(c2ccc3ccn(-c4ccccc4)c3c2)C(=O)C1C(=O)Nc1cccc(C(C)(F)F)c1 (stereo not drawn) [compound 361],0.01 to 6 nM
12,CC1=NN(c2ccc(OC(F)F)cc2)C(=O)C1C(=O)Nc1cccc2[nH]ccc12 (stereo not drawn) [compound 350],100 to 1000 nM
13,"CC1=NN(c2ccccc2)C(=O)C1C(=O)NC1CCOCC1 (stereo not drawn) [compound 112, 3-methyl-5-oxo-1-phenyl-N-(tetrahydro-2H-pyran-4-yl)-4,5-dihydro-1H-pyrazole-4-carboxamide]",1000 to 100000 nM
14,CC1=NN(c2ccc(OC(F)F)cc2)C(=O)C1C(=O)Nc1ccc2[nH]ccc2c1 (stereo not drawn) [compound 347],100 to 1000 nM
15,CC1=NN(c2cc(Br)cc(Cc3ccc(Cl)cc3)c2)C(=O)C1C(=O)Nc1cccc(C(C)(F)F)c1 (stereo not drawn) [compound 388],0.01 to 6 nM
16,CC1=NN(c2ccc(OC(F)F)cc2)C(=O)C1C(=O)Nc1cc(C(C)(F)F)ccc1CO (stereo not drawn) [compound 459],0.01 to 6 nM
17,"CCc1cccc(NC(=O)C2C(=O)N(c3ccccc3)N=C2c2ccncc2)c1 (stereo not drawn) [compound 137, N-(3-ethylphenyl)-5-oxo-1-phenyl-3-(pyridin-4-yl)-4,5-dihydro-1H-pyrazole-4-carboxamide]",1000 to 100000 nM
18,"CC1=NN(c2ccccc2)C(=O)C1C(=O)Nc1ccc(F)cc1 (stereo not drawn) [compound 189, N-(4-fluorophenyl)-3-methyl-5-oxo-1-phenyl-4,5-dihydro-1H-pyrazole-4-carboxamide]",1000 to 100000 nM
19,"CCc1cccc(NC(=O)C2C(=O)N(c3ccc(C(F)(F)F)cc3)N=C2C)c1 (stereo not drawn) [compound 127, N-(3-ethylphenyl)-3-methyl-5-oxo-1-(4-(trifluoromethyl)phenyl)-4,5-dihydro-1H-pyrazole-4-carboxamide]",6 to 100 nM

row,Compound,IC50
1,"CCc1cccc(NC(=O)C2C(=O)N(c3ccc([N+](=O)[O-])cc3)N=C2C)c1 (stereo not drawn) [compound 153, N-(3-ethylphenyl)-3-methyl-1-(4-nitrophenyl)-5-oxo-4,5-dihydro-1H-pyrazole-4-carboxamide]",100 to 1000 nM
2,CCc1ccc(NC(=O)C2C(=O)N(c3ccccc3)N=C2C)s1 (stereo not drawn) [compound 260],100 to 1000 nM
3,"CC1=NN(c2ccccc2)C(=O)C1C(=O)N(C)c1ccccc1 (stereo not drawn) [compound 204, N,3-dimethyl-5-oxo-N,1-diphenyl-4,5-dihydro-1H-pyrazole-4-carboxamide]",> 100000 nM
4,"CC1=NN(c2ccccc2)C(=O)C1C(=O)Nc1ccncc1 (stereo not drawn) [compound 216, 3-methyl-5-oxo-1-phenyl-N-(pyridin-4-yl)-4,5-dihydro-1H-pyrazole-4-carboxamide]",1000 to 100000 nM
5,CCC(F)(F)c1cccc(NC(=O)C2C(=O)N(c3ccc(OC(F)F)c(-c4nnc(C)[nH]4)c3)N=C2C)c1 (stereo not drawn) [compound 370],0.01 to 6 nM
6,"CCc1cccc(NC(=O)C2C=NN(c3ccccc3)C2=O)c1 (stereo not drawn) [compound 133, N-(3-ethylphenyl)-5-oxo-1-phenyl-4,5-dihydro-1H-pyrazole-4-carboxamide]",100 to 1000 nM
7,CC1=NN(c2ccc(OC(F)F)cc2)C(=O)C1C(=O)Nc1cc(C(C)(F)F)cc2ccoc12 (stereo not drawn) [compound 403],6 to 100 nM
8,"CC1=NN(c2ccccc2)C(=O)C1C(=O)Nc1ccc2c(c1)CCC2 (stereo not drawn) [compound 209, N-(2,3-dihydro-1H-inden-5-yl)-3-methyl-5-oxo-1-phenyl-4,5-dihydro-1H-pyrazole-4-carboxamide]",100 to 1000 nM
9,CCC(F)(F)c1cccc(NC(=O)C2C(=O)N(c3ccc(OC(F)F)cn3)N=C2C)c1 (stereo not drawn) [compound 383],0.01 to 6 nM
10,CC1=NN(c2ccc(OC(F)F)cc2)C(=O)C1C(=O)Nc1ccc2cc[nH]c2c1 (stereo not drawn) [compound 349],100 to 1000 nM
11,CC1=NN(c2ccc3cc[nH]c3c2)C(=O)C1C(=O)Nc1cccc(C(C)(F)F)c1 (stereo not drawn) [compound 410],0.01 to 6 nM
12,CC1=NN(c2ccc(OC3CCCCC3)cc2)C(=O)C1C(=O)Nc1cccc(C(C)(F)F)c1 (stereo not drawn) [compound 443],0.01 to 6 nM
13,CC1=NN(c2ccc(OC(C)C)cc2)C(=O)C1C(=O)Nc1cccc(C(C)(F)F)c1 (stereo not drawn) [compound 447],0.01 to 6 nM
14,COc1cc(N2N=C(C)C(C(=O)Nc3cccc(C(C)(F)F)c3)C2=O)ccc1OC(F)F (stereo not drawn) [compound 454],0.01 to 6 nM
15,"CC1=NN(c2ccc(S(=O)(=O)N(C)C)cc2)C(=O)C1C(=O)Nc1cccc(-c2ccco2)c1 (stereo not drawn) [compound 160, 1-(4-(N,N-dimethylsulfamoyl)phenyl)-N-(3-(furan-2-yl)phenyl)-3-methyl-5-oxo-4,5-dihydro-1H-pyrazole-4-carboxamide]",6 to 100 nM
16,"CC1=NN(c2ccc(S(=O)(=O)N(C)C)cc2)C(=O)C1C(=O)Nc1ccccc1 (stereo not drawn) [compound 110, 1-(4-(N,N-dimethylsulfamoyl)phenyl)-3-methyl-5-oxo-N-phenyl-4,5-dihydro-1H-pyrazole-4-carboxamide]",100 to 1000 nM
17,"CC1=NN(c2ccc(S(=O)(=O)N(C)C)cc2)C(=O)C1C(=O)Nc1cccc(-c2ncc[nH]2)c1 (stereo not drawn) [compound 173, N-(3-(1H-imidazol-2-yl)phenyl)-1-(4-(N,N-dimethylsulfamoyl)phenyl)-3-methyl-5-oxo-4,5-dihydro-1H-pyrazole-4-carboxamide]",100 to 1000 nM
18,"CC1=NN(c2ccccc2)C(=O)C1C(=O)Nc1cccc(C2CCCC2)c1 (stereo not drawn) [compound 146, N-(3-cyclopentylphenyl)-3-methyl-5-oxo-1-phenyl-4,5-dihydro-1H-pyrazole-4-carboxamide]",100 to 1000 nM
19,CC1=NN(c2cccc(S(=O)(=O)N(C)C)c2)C(=O)C1C(=O)Nc1cccc(-c2ncc[nH]2)c1 (stereo not drawn) [compound 277],6 to 100 nM

row,Compound,IC50
1,N#Cc1ccc(OCCNC(=O)c2cccc(C(O)CO)c2)cc1 (stereo not drawn) [compound 179],1000 to 100000 nM
2,COc1ccc(N2N=C(C)C(C(=O)Nc3cccc(C(C)(F)F)c3)C2=O)cc1-c1ccc[n+]([O-])c1 (stereo not drawn) [compound 417],100 to 1000 nM
3,CC1=NN(c2ccc(OC(F)(F)F)cc2)C(=O)C1C(=O)Nc1csc(C(C)(F)F)c1 (stereo not drawn) [compound 295],6 to 100 nM
4,"CC1=NN(c2ccc(C(F)(F)F)cc2)C(=O)C1C(=O)Nc1cccc(-c2cnccn2)c1 (stereo not drawn) [compound 150, 3-methyl-5-oxo-N-(3-(pyrazin-2-yl)phenyl)-1-(4-(trifuoromethyl)phenyl)-4,5-dihydro-1H-pyrazole-4-carboxamide]",6 to 100 nM
5,CC1=NN(c2cccc(C#CCNC(=O)COCCOCC(=O)Nc3cccc4c3C(=O)N(C3CCC(=O)NC3=O)C4=O)c2)C(=O)C1C(=O)Nc1cccc(C(C)(F)F)c1 (stereo not drawn) [compound 381],0.01 to 6 nM
6,COc1ccc(N2N=C(C)C(C(=O)Nc3cccc(C(C)(F)F)c3)C2=O)cc1-c1ccccc1 (stereo not drawn) [compound 452],0.01 to 6 nM
7,CC1=NN(c2ccc(B(O)O)cc2)C(=O)C1C(=O)Nc1cccc(C(C)(F)F)c1 (stereo not drawn) [compound 421],0.01 to 6 nM
8,"CCC1=NN(c2ccccc2)C(=O)C1C(=O)Nc1cccc(CC)c1 (stereo not drawn) [compound 136, 3-ethyl-N-(3-ethylphenyl)-5-oxo-1-phenyl-4,5-dihydro-1H-pyrazole-4-carboxamide]",1000 to 100000 nM
9,CC1=NN(c2cccc(C#CCNC(=O)COCCOCCOCC(=O)Nc3cccc4c3C(=O)N(C3CCC(=O)NC3=O)C4=O)c2)C(=O)C1C(=O)Nc1cccc(C(C)(F)F)c1 (stereo not drawn) [compound 380],0.01 to 6 nM
10,CCC(F)(F)c1cccc(NC(=O)C2C(=O)N(c3ccc4ccn(C(C)C)c4c3)N=C2C)c1 (stereo not drawn) [compound 360],0.01 to 6 nM
11,CCC(F)(F)c1cccc(NC(=O)C2C(=O)N(c3ccc(OC(F)F)c(-c4ccccn4)c3)N=C2C)c1 (stereo not drawn) [compound 377],0.01 to 6 nM
12,CC1=NN(c2cc(Cc3ccc(OCc4ccccc4)cc3)cc(-c3cccnc3)c2)C(=O)C1C(=O)Nc1cccc(C(C)(F)F)c1 (stereo not drawn) [compound 373],100 to 1000 nM
13,CC1=NN(c2ccc(OC(F)F)cc2)C(=O)C1C(=O)Nc1cccc2cc[nH]c12 (stereo not drawn) [compound 346],100 to 1000 nM
14,CC1=NN(c2ccc(C3CC3)cc2)C(=O)C1C(=O)Nc1cccc(C(C)(F)F)c1 (stereo not drawn) [compound 457],0.01 to 6 nM
15,CC1=NN(c2ccc(OC(F)F)cc2)C(=O)C1C(=O)N(C)c1cc(Cl)c(F)c(Cl)c1 (stereo not drawn) [compound 391],100 to 1000 nM
16,"CC1=NN(c2ccccc2)C(=O)C1C(=O)Nc1cccc(C)c1 (stereo not drawn) [compound 212, 3-methyl-5-oxo-1-phenyl-N-(m-tolyl)-4,5-dihydro-1H-pyrazole-4-carboxamide]",1000 to 100000 nM
17,CCc1cccc(NC(=O)C2C(=O)N(c3ccc4cccnc4c3)N=C2C)c1 (stereo not drawn) [compound 267],6 to 100 nM
18,COc1ccc(N2N=C(C)C(C(=O)Nc3cccc(C(C)(F)F)c3)C2=O)cc1-c1cc[n+]([O-])cc1 (stereo not drawn) [compound 345],100 to 1000 nM
19,CC1=NN(c2ccncc2)C(=O)C1C(=O)Nc1cccc(-c2cnccn2)c1 (stereo not drawn) [compound 232],6 to 100 nM
